Test results reported in patent publication US7030213B2, “Conformationally stabilized cell adhesion peptides” (La Jolla Cancer Research Institute, priority 1987, dated 2006).
Primed or numbered codes have the meaning given here. Where no end group is shown, it is not given here. [ ]: non-standard residue; d: D form. Pen′ = Penicillamine

Tests used:
[1] = test system: attachment of normal rat kidney cells to vitronectin; assay: Cell adhesion assay: inhibition of attachment of normal rat kidney cells to vitronectin; type: cell-based; details: normal rat kidney cells on vitronectin-coated wells, peptide 0 to 10.0 mM, 1 hour at 37° C., FIG. 2
Description: (§1) Fibronectin and vitronectin were purified from human plasma according to the methods of Ruoslahti et al., (1982) Meth. Enz. 82:803; and Hayman et al., (1983) PNAS 80:4003, respectively, both of which are incorporated herein by reference. The adhesion of normal rat kidney cells to fibronectin and vitronectin was assayed as described, in Ruoslahti et al., Meth. Enz. supra. Briefly, 0.1 ml solution of fibronectin or vitronectin at a concentration of 12 μg/ml in 0.1M PBS was placed in each well of 96-well plastic microtiter plates and left for 2 hours at room temperature. The unattached protein was removed by washing three times with PBS.
(§2) One day before the assay, a confluent culture of normal rat kidney cells was split 1:2 using standard tissue culture trypsin. The cells were washed three times with PBS, pH 7.2. […] Before the last centrifugation, a sample was taken and cell numbers and viability by trypan blue exclusion are determined. […]
(§3) The unattached cells were removed simply by removing the medium and washing the wells. […] The cells were then fixed with 3% paraformaldehyde in PBS and stained with 1% toluidine blue, paraformaldehyde in PBS, and attached cells counted. Their number was determined using a cell counter that is capable of counting cells attached to a surface (Dynatech Laboratories, Alexandria, Va.). […]

[2] = test system: attachment of normal rat kidney cells to fibronectin; assay: Cell adhesion assay: inhibition of attachment of normal rat kidney cells to fibronectin; type: cell-based; details: normal rat kidney cells on fibronectin-coated wells; peptide 0 to 10.0 mM; 1 hour at 37° C.; FIG. 2
Description: as §1, §2, §3

Substance	inhibition of attachment to vitronectin [1]	inhibition of attachment to fibronectin [2]	molar concentration inhibiting attachment to vitronectin, lower than the linear peptide ([1]; relative to linear peptide)
Gly-Pen-Gly-Arg-Gly-Asp-Ser-Pro-Cys (G[Pen′]GRGDSPC; cysteine pairing not given here) [linear peptide, non-cyclized, or linear, peptide used as comparator]	inhibited attachment of cells to both substrates at relatively similar concentrations	inhibited attachment of cells to both substrates at relatively similar concentrations	
Gly-Pen-Gly-Arg-Gly-Asp-Ser-Pro-Cys-Ala [cyclic peptide]		ineffective	10 fold
